US20200010457A1, “TETRAHYDROPYRAN AND TETRAHYDROTHIOPYRAN AMIDE DERIVATIVES HAVING MULTIMODAL ACTIVITY AGAINST PAIN” (ESTEVE PHARMACEUTICALS, S.A., priority 2016, published 2020)

Molecular target: human σ1 receptor and human μ-opioid receptor
Assay: Human σ1 receptor ([3H](+)-pentazocine) and human μ-opioid receptor ([3H]-DAMGO) radioligand assays, reported as one combined score
Assay type: binding
Parameters: key to σ1 and μ binding: +: Both Ki-μ and Ki-σ1>=1000 nM; ++: One Ki<1000 nM while the other Ki is >=1000 nM; +++: Both Ki-μ and Ki-σ1<1000 nM; ++++: Both Ki-μ and Ki-σ1<500 nM
Conditions: combined class for Ki-σ1 (transfected HEK-293 membranes) and Ki-μ (transfected CHO-K1 cell membranes); for Ki: read-out: σ1 and μ binding
Experimental: Human σ1 Receptor Radioligand Assay
To investigate binding properties of test compounds to human σ1 receptor, transfected HEK-293 membranes and [^3H](+)-pentazocine (Perkin Elmer, NET-1056), as the radioligand, were used. The assay was carried out with 7 μg of membrane suspension, 5 nM of [^3H](+)-pentazocine in either absence or presence of either buffer or 10 μM Haloperidol for total and non-specific binding, respectively. Binding buffer contained Tris-HCl 50 mM at pH 8. Plates were incubated at 37° C. for 120 minutes. After the incubation period, the reaction mix was then transferred to MultiScreen HTS, FC plates (Millipore), filtered and plates were washed 3 times with ice-cold 10 mM TrisHCL (pH7.4). Filters were dried and counted at approximately 40% efficiency in a MicroBeta scintillation counter (Perkin-Elmer) using EcoScint liquid scintillation cocktail.
Preferably, transfected HEK-293 membranes (7 μg) were incubated with 5 nM of [^3H](+)-pentazocine in assay buffer containing Tris-HCl 50 mM at pH 8. NBS (non-specific binding) was measured by adding 10 μM Haloperidol. The binding of the test compound was measured at five different concentrations. Plates were incubated at 37° C. for 120 minutes. After the incubation period, the reaction mix was then transferred to MultiScreen HTS, FC plates (Millipore), filtered and plates were washed 3 times with ice-cold 10 mM TrisHCL (pH7.4). Filters were dried and counted at approximately 40% efficiency in a MicroBeta scintillation counter (Perkin-Elmer) using EcoScint liquid scintillation cocktail.
Human μ-Opioid Receptor Radioligand Assay
To investigate binding properties of test compounds to human μ-opioid receptor, transfected CHO-K1 cell membranes and [^3H]-DAMGO (Perkin Elmer, ES-542-C), as the radioligand, were used. The assay was carried out with 20 μg of membrane suspension, 1 nM of [^3H]-DAMGO in either absence or presence of either buffer or 10 μM Naloxone for total and non-specific binding, respectively. Binding buffer contained Tris-HCl 50 mM, MgCl2 5 mM at pH 7.4. Plates were incubated at 27° C. for 60 minutes. After the incubation period, the reaction mix was then transferred to MultiScreen HTS, FC plates (Millipore), filtered and plates were washed 3 times with ice-cold 10 mM TrisHCL (pH 7.4). Filters were dried and counted at approximately 40% efficiency in a MicroBeta scintillation counter (Perkin-Elmer) using EcoScint liquid scintillation cocktail.
Preferably, transfected CHO-K1 cell membranes (20 μg) were incubated with 1 nM of [^3H]-DAMGO in assay buffer containing Tris-HCl 50 mM, MgCl2 5 mM at pH 7.4. NBS (non-specific binding) was measured by adding 10 μM Naloxone. The binding of the test compound was measured at five different concentrations. Plates were incubated at 27° C. for 60 minutes. After the incubation period, the reaction mix was then transferred to MultiScreen HTS, FC plates (Millipore), filtered and plates were washed 3 times with ice-cold 10 mM TrisHCL (pH 7.4). Filters were dried and counted at approximately 40% efficiency in a MicroBeta scintillation counter (Perkin-Elmer) using EcoScint liquid scintillation cocktail.

Structure (SMILES): CCC(=O)N(CC1(N(C)CCN(Cc2ccccc2)CC(C)C)CCOCC1)c1cccc(C(F)(F)F)n1 [Example 1, N-((4-((2-(Benzyl(isobutyl)amino)ethyl)(methyl)amino)tetrahydro-2H-pyran-4-yl)methyl)-N-(6-(trifluoromethyl)pyridin-2-yl)propionamide]
- Ki: ≥ 1000 nM

Structure (SMILES): CCOCCNCCCC1(CN(C(=O)CC)c2cccc(C(F)(F)F)n2)CCOCC1 [Example 6, N-((4-(3-((2-ethoxyethyl)amino)propyl)tetrahydro-2H-pyran-4-yl)methyl)-N-(6-(trifluoromethyl)pyridin-2-yl)propionamide]
- Ki: < 1000 nM

Structure (SMILES): CCC(=O)N(CC1(N(C)CCN(C)Cc2ccccc2)CCOCC1)c1cccc(C(F)(F)F)n1 [Example 2, N-((4-((2-(benzyl(methyl)amino)ethyl)(methyl)amino)tetrahydro-2H-pyran-4-yl)methyl)-N-(6-(trifluoromethyl)pyridin-2-yl)propionamide]
- σ1 and μ binding: ++

Structure (SMILES): CCC(=O)N(CC1(CCCNCC(C)C)CCOCC1)c1cccc(C(F)(F)F)n1 [Example 5, N-((4-(3-(Isobutylamino)propyl)tetrahydro-2H-pyran-4-yl)methyl)-N-(6-(trifluoromethyl)pyridin-2-yl)propionamide]
- σ1 and μ binding: ++

Structure (SMILES): CCC(=O)N(CC1(CCNCC(C)C)CCOCC1)c1cccc(C(F)(F)F)n1 [Example 7, N-((4-(2-(isobutylamino)ethyl)tetrahydro-2H-pyran-4-yl)methyl)-N-(6-(trifluoromethyl)pyridin-2-yl)propionamide]
- Ki: ≥ 1000 nM

Structure (SMILES): CCOCCN(C)CCCC1(CN(C(=O)CC)c2cccc(C(F)(F)F)n2)CCOCC1 [Example 9, N-((4-(3-((2-ethoxyethyl)(methyl)amino)propyl)tetrahydro-2H-pyran-4-yl)methyl)-N-(6-(trifluoromethyl)pyridin-2-yl)propionamide]
- Ki: ≥ 1000 nM

Structure (SMILES): CCC(=O)N(CC1(CCCN(C)CC(C)C)CCOCC1)c1cccc(C(F)(F)F)n1 [Example 8, N-((4-(3-(isobutyl(methyl)amino)propyl)tetrahydro-2H-pyran-4-yl)methyl)-N-(6-(trifluoromethyl)pyridin-2-yl)propionamide]
- σ1 and μ binding: ++

Structure (SMILES): CCC(=O)N(CC1(N(C)CCNCC(C)C)CCOCC1)c1cccc(C(F)(F)F)n1 [Example 3, N-((4-((2-(Isobutylamino)ethyl)(methyl)amino)tetrahydro-2H-pyran-4-yl)methyl)-N-(6-(trifluoromethyl)pyridin-2-yl)propionamide]
- σ1 and μ binding: ++

Structure (SMILES): CCOCCN(C)CCN(C)C1(CN(C(=O)CC)c2cccc(C(F)(F)F)n2)CCOCC1 [Example 4, N-((4-((2-((2-Ethoxyethyl)(methyl)amino)ethyl)(methyl)amino)tetrahydro-2H-pyran-4-yl)methyl)-N-(6-(trifluoromethyl)pyridin-2-yl)propionamide]
- σ1 and μ binding: ++
